US20260022142A1, “MACROCYCLIC IMMUNOMODULATORS” (Bristol-Myers Squibb Company, priority 2022, published 2026)
Bridge positions count the residues as written; N and C are the ends. Square brackets hold non-standard residues; d marks the D form. Peptide text beside a SMILES is read from it. * marks the point of attachment. ξ: configuration not given here. Phe(4-CONH2) = NC(=O)c1ccc(C[C@H](N)C(=O)O)cc1; Phe(4-COOH) = N[C@@H](Cc1ccc(C(=O)O)cc1)C(=O)O; Bip = N[C@@H](Cc1ccc(-c2ccccc2)cc1)C(=O)O; NH(CH2)14COOH = O=C(O)CCCCCCCCCCCCCCN*; Phe(3-Me) = Cc1cccc(C[C@H](N)C(=O)O)c1; Abu(3S-NH2) = C[C@H](N)[C@H](N)C(=O)O; NH(CH2)12COOH = O=C(O)CCCCCCCCCCCCN*; Val(3-OH) = CC(C)(O)[C@H](N)C(=O)O; 4Pal = N[C@@H](Cc1ccncc1)C(=O)O; 2Thi = N[C@@H](Cc1cccs1)C(=O)O; Cha = N[C@@H](CC1CCCCC1)C(=O)O; Ile(3ξ) = CCC(C)[C@H](N)C(=O)O; Thr(3ξ) = CC(O)[C@H](N)C(=O)O; Carboxymethyl = O=C(O)C*; Nle = CCCC[C@H](N)C(=O)O; Orn = NCCC[C@H](N)C(=O)O; Aun = NCCCCCCCCCCC(=O)O; Dab = NCC[C@H](N)C(=O)O; Dap = NC[C@H](N)C(=O)O; AEEA = NCCOCCOCC(=O)O; Ac3c = NC1(C(=O)O)CC1

target: T1, PD-1/PD-L1 interaction (PE-labeled human PD-L1-Ig binding to Jurkat cell line over-expressing human PD-1) (Homo sapiens, UniProt Q15116); assay: Jurkat-PD-1 Cell Binding High-Content Screening Assay (CBA); format: cell-based; settings: Jurkat cell line over-expressing human PD-1; PE-labeled PD-L1-Ig 20 nM final; read-out: Jurkat hPD1-PDL1 IC50
T1 construct: expressed in transfected cells; host or cells: Jurkat
Procedure, shortened: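 Jurkat-hPD-1 cells, DMEM/10% FCS; cpd 2 h 37° C; PE-PD-L1-Ig 20 nM final, 1 h; 4% PFA fix + Hoechst 33342, 3× dPBS wash; high-content imaging read-out.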

T1 sequence (Q15116 25-288): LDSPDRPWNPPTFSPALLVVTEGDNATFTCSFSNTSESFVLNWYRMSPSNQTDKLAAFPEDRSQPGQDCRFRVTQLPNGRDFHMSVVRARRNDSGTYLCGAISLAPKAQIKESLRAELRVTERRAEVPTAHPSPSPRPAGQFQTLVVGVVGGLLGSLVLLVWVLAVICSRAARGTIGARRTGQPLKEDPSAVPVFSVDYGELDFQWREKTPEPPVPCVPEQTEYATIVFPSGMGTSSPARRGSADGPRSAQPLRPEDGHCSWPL

IC50 [nM] | SMILES
94.2 | Cc1cccc(C[C@@H]2NC(=O)[C@H](CC(=O)O)NC(=O)[C@H](Cc3ccc(OCC(=O)O)cc3)NC(=O)[C@H](C)NC(=O)CSC[C@@H](C(=O)N[C@@H](CCN)C(=O)NCCOCCOCC(=O)NCCOCCOCC(=O)NCCOCCOCC(=O)NCCCCCCCCCCCCCCC(=O)O)NC(=O)[C@H](Cc3cnc[nH]3)NC(=O)[C@H](C(C)(C)O)NC(=O)[C@H](CC3CCCCC3)NC(=O)[C@H](CCN)NC(=O)[C@@H](CC(C)C)NC(=O)[C@H](CCCN)NC(=O)[C@H](Cc3ccc(C(=O)O)cc3)NC(=O)[C@H](Cc3ccc(-c4ccccc4)cc3)NC(=O)[C@H](Cc3ccc(C(=O)O)cc3)NC2=O)c1 [Compound 3856] ({CH2CO}-AY(Carboxymethyl)D[Phe(3-Me)][Phe(4-COOH)][Bip][Phe(4-COOH)][Orn][dL][Dab][Cha][Val(3-OH)]HC[Dab][AEEA][AEEA][AEEA]-{NH(CH2)14COOH}; thioether N-14)
49.7 | CC(C)C[C@H]1NC(=O)[C@H](CCCN)NC(=O)[C@H](Cc2ccc(O)cc2)NC(=O)[C@H](Cc2ccc(-c3ccccc3)cc2)NC(=O)[C@H](Cc2ccc(O)cc2)NC(=O)[C@H](Cc2c[nH]c3ccccc23)NC(=O)[C@H](CC(=O)O)NC(=O)[C@H](Cc2ccc(OCC(=O)O)cc2)NC(=O)[C@H](Cc2ccc(OCC(=O)O)cc2)NC(=O)CSC[C@@H](C(=O)N[C@@H](CCN)C(=O)NCCCCCCCCCCC(=O)O)NC(=O)[C@H](CN)NC(=O)[C@H](Cc2ccc(O)cc2)NC(=O)[C@H](CC2CCCCC2)NC(=O)[C@H](CCN)NC1=O [Compound 2514] ({CH2CO}-Y(Carboxymethyl)Y(Carboxymethyl)DWY[Bip]Y[Orn][dL][Dab][Cha]Y[Dap]C[Dab][Aun]-OH; thioether N-14)
2.6 | Cc1cccc(C[C@@H]2NC(=O)[C@H](CC(=O)O)NC(=O)[C@H](Cc3ccc(OCC(=O)O)cc3)NC(=O)[C@H]([C@H](C)N)NC(=O)CSC[C@@H](C(=O)N[C@@H](CCN)C(=O)NCCCCCCCCCCC(=O)O)NC(=O)[C@H](CO)NC(=O)[C@H](C(C)(C)O)NC(=O)[C@H](CC3CCCCC3)NC(=O)[C@H](CCN)NC(=O)[C@@H](CC(C)C)NC(=O)[C@H](CCCN)NC(=O)[C@H](Cc3ccc(OCC(=O)O)cc3)NC(=O)[C@H](Cc3ccc(-c4ccccc4)cc3)NC(=O)[C@H](Cc3ccc(OCC(=O)O)cc3)NC2=O)c1 [Compound 2237] ({CH2CO}-[Abu(3S-NH2)]Y(Carboxymethyl)D[Phe(3-Me)]Y(Carboxymethyl)[Bip]Y(Carboxymethyl)[Orn][dL][Dab][Cha][Val(3-OH)]SC[Dab][Aun]-OH; thioether N-14)
12.2 | CCC(C)[C@@H]1NC(=O)[C@H](Cc2ccc(-c3ccccc3)cc2)NC(=O)[C@H](C(C)C)NC(=O)[C@H](Cc2c[nH]c3ccccc23)NC(=O)[C@H](CC(=O)O)NC(=O)[C@H](Cc2ccc(C(=O)O)cc2)NC(=O)[C@H](Cc2ccncc2)NC(=O)CSC[C@@H](C(=O)N[C@H](CO)C(=O)NCCOCCOCC(=O)N[C@@H](CCCN)C(=O)NCCCCCCCCCCC(=O)O)NC(=O)[C@H](CO)NC(=O)[C@H](C(C)C)NC(=O)[C@H](CC2CCCCC2)NC(=O)[C@H](CCN)NC(=O)[C@@H](CC(C)C)NC(=O)[C@H](CCCN)NC1=O (stereo partly drawn) [Compound 3059] ({CH2CO}-[4Pal][Phe(4-COOH)]DWV[Bip][Ile(3ξ)][Orn][dL][Dab][Cha]VSC[dS][AEEA][Orn][Aun]-OH; thioether N-14)
55.2 | Cc1cccc(C[C@@H]2NC(=O)[C@H](CC(=O)O)NC(=O)[C@H](Cc3ccc(OCC(=O)O)cc3)NC(=O)[C@H](CN)NC(=O)CSC[C@@H](C(=O)N[C@@H](CCN)C(=O)NCCCCCCCCCCC(=O)O)NC(=O)[C@H](Cc3ccncc3)NC(=O)[C@H](C(C)C)NC(=O)[C@H](CC3CCCCC3)NC(=O)[C@H](CCN)NC(=O)[C@@H](CC(C)C)NC(=O)[C@H](CCCN)NC(=O)[C@H](Cc3ccc(O)cc3)NC(=O)[C@H](Cc3ccc(-c4ccccc4)cc3)NC(=O)[C@H](C(C)C)NC2=O)c1 [Compound 2768] ({CH2CO}-[Dap]Y(Carboxymethyl)D[Phe(3-Me)]V[Bip]Y[Orn][dL][Dab][Cha]V[4Pal]C[Dab][Aun]-OH; thioether N-14)
26.2 | CCCC[C@@H]1NC(=O)CSC[C@@H](C(=O)N[C@@H](CCN)C(=O)NCCOCCOCC(=O)NCCOCCOCC(=O)NCCCCCCCCCCCCC(=O)O)NC(=O)[C@H](CCC(=O)O)NC(=O)[C@H](C(C)(C)O)NC(=O)[C@H](CC2CCCCC2)NC(=O)[C@H](CCN)NC(=O)[C@@H](CC(C)C)NC(=O)[C@H](CCCN)NC(=O)[C@H](Cc2ccc(C(=O)O)cc2)NC(=O)[C@H](Cc2ccc(-c3ccccc3)cc2)NC(=O)[C@H](Cc2ccc(C(=O)O)cc2)NC(=O)[C@H](Cc2cccc(C)c2)NC(=O)[C@H](CC(=O)O)NC(=O)[C@H](Cc2ccc(OCC(=O)O)cc2)NC1=O [Compound 2892] ({CH2CO}-[Nle]Y(Carboxymethyl)D[Phe(3-Me)][Phe(4-COOH)][Bip][Phe(4-COOH)][Orn][dL][Dab][Cha][Val(3-OH)]EC[Dab][AEEA][AEEA]-{NH(CH2)12COOH}; thioether N-14)
2.1 | Cc1cccc(C[C@@H]2NC(=O)[C@H](CC(=O)O)NC(=O)[C@H](Cc3ccc(OCC(=O)O)cc3)NC(=O)[C@H](CCN)NC(=O)CSC[C@@H](C(=O)N[C@@H](CCN)C(=O)NCCOCCOCC(=O)NCCCCCCCCCCC(=O)O)NC(=O)[C@H](CCC(=O)O)NC(=O)[C@H](C(C)O)NC(=O)[C@H](CC3CCCCC3)NC(=O)[C@H](CCN)NC(=O)[C@@H](CC(C)C)NC(=O)[C@H](CCCN)NC(=O)[C@H](Cc3ccc(OCC(=O)O)cc3)NC(=O)[C@H](Cc3ccc(-c4ccccc4)cc3)NC(=O)[C@H](Cc3ccc(OCC(=O)O)cc3)NC2=O)c1 (stereo partly drawn) [Compound 3797] ({CH2CO}-[Dab]Y(Carboxymethyl)D[Phe(3-Me)]Y(Carboxymethyl)[Bip]Y(Carboxymethyl)[Orn][dL][Dab][Cha][Thr(3ξ)]EC[Dab][AEEA][Aun]-OH; thioether N-14)

More lines, now with the values behind:

SMILES | IC50 [nM]
Cc1cccc(C[C@@H]2NC(=O)[C@H](CC(=O)O)NC(=O)[C@H](Cc3ccc(C(=O)O)cc3)NC(=O)[C@H](Cc3cccs3)NC(=O)CSC[C@@H](C(=O)N[C@@H](CCN)C(=O)NCCCCCCCCCCC(=O)O)NC(=O)[C@H](CO)NC(=O)[C@H](C(C)(C)O)NC(=O)[C@H](CC3CCCCC3)NC(=O)[C@H](CCN)NC(=O)[C@@H](CC(C)C)NC(=O)[C@H](CCCN)NC(=O)[C@H](Cc3ccc(OCC(=O)O)cc3)NC(=O)[C@H](Cc3ccc(-c4ccccc4)cc3)NC(=O)[C@H](Cc3ccc(OCC(=O)O)cc3)NC2=O)c1 [Compound 2179] ({CH2CO}-[2Thi][Phe(4-COOH)]D[Phe(3-Me)]Y(Carboxymethyl)[Bip]Y(Carboxymethyl)[Orn][dL][Dab][Cha][Val(3-OH)]SC[Dab][Aun]-OH; thioether N-14) | 22
Cc1cccc(C[C@@H]2NC(=O)[C@H](CC(=O)O)NC(=O)[C@H](Cc3ccc(OCC(=O)O)cc3)NC(=O)[C@H](Cc3ccncc3)NC(=O)CSC[C@@H](C(=O)N[C@@H](CCN)C(=O)NCCCCCCCCCCC(=O)O)NC(=O)[C@H](CO)NC(=O)[C@H](C(C)(C)O)NC(=O)[C@H](CC3CCCCC3)NC(=O)[C@H](CCN)NC(=O)[C@@H](CC(C)C)NC(=O)[C@H](CCCN)NC(=O)[C@H](Cc3ccc(OCC(=O)O)cc3)NC(=O)[C@H](Cc3ccc(-c4ccccc4)cc3)NC(=O)[C@H](Cc3ccc(C(N)=O)cc3)NC2=O)c1 [Compound 2192] ({CH2CO}-[4Pal]Y(Carboxymethyl)D[Phe(3-Me)][Phe(4-CONH2)][Bip]Y(Carboxymethyl)[Orn][dL][Dab][Cha][Val(3-OH)]SC[Dab][Aun]-OH; thioether N-14) | 7.7
Cc1cccc(C[C@@H]2NC(=O)[C@H](CC(=O)O)NC(=O)[C@H](Cc3ccc(OCC(=O)O)cc3)NC(=O)[C@H](CCCNC(=N)N)NC(=O)CSC[C@@H](C(=O)N[C@@H](CCN)C(=O)NCCCCCCCCCCC(=O)O)NC(=O)[C@H](CCC(N)=O)NC(=O)[C@H](C(C)C)NC(=O)[C@H](CC3CCCCC3)NC(=O)[C@H](CCN)NC(=O)[C@@H](CC(C)C)NC(=O)[C@H](CCCN)NC(=O)[C@H](Cc3ccc(OCC(=O)O)cc3)NC(=O)[C@H](Cc3ccc(-c4ccccc4)cc3)NC(=O)[C@H](C(C)(C)O)NC2=O)c1 [Compound 2113] ({CH2CO}-RY(Carboxymethyl)D[Phe(3-Me)][Val(3-OH)][Bip]Y(Carboxymethyl)[Orn][dL][Dab][Cha]VQC[Dab][Aun]-OH; thioether N-14) | 8.7
Cc1cccc(C[C@@H]2NC(=O)[C@H](CC(=O)O)NC(=O)[C@H](Cc3ccncc3)NC(=O)[C@H](Cc3ccc(OCC(=O)O)cc3)NC(=O)CSC[C@@H](C(=O)N[C@@H](CCN)C(=O)NCCCCCCCCCCC(=O)O)NC(=O)[C@H]([C@@H](C)O)NC(=O)[C@H](C(C)C)NC(=O)[C@H](CC3CCCCC3)NC(=O)[C@H](CCN)NC(=O)[C@@H](CC(C)C)NC(=O)[C@H](CCCN)NC(=O)[C@H](C(C)C)NC(=O)[C@H](Cc3ccc(-c4ccccc4)cc3)NC(=O)[C@H](C(C)C)NC2=O)c1 [Compound 1164] ({CH2CO}-Y(Carboxymethyl)[4Pal]D[Phe(3-Me)]V[Bip]V[Orn][dL][Dab][Cha]VTC[Dab][Aun]-OH; thioether N-14) | 122
Cc1cccc(C[C@@H]2NC(=O)[C@H](CC(=O)O)NC(=O)[C@H](Cc3ccc(OCC(=O)O)cc3)NC(=O)[C@H](CCCNC(=N)N)NC(=O)CSC[C@@H](C(=O)NC3(C(=O)NCCCCCCCCCCC(=O)O)CC3)NC(=O)[C@H](CCC(N)=O)NC(=O)[C@H](C(C)C)NC(=O)[C@H](CC3CCCCC3)NC(=O)[C@H](CCN)NC(=O)[C@@H](CC(C)C)NC(=O)[C@H](CCCN)NC(=O)[C@H](Cc3ccc(OCC(=O)O)cc3)NC(=O)[C@H](Cc3ccc(-c4ccccc4)cc3)NC(=O)[C@H](Cc3ccc(OCC(=O)O)cc3)NC2=O)c1 [Compound 2137] ({CH2CO}-RY(Carboxymethyl)D[Phe(3-Me)]Y(Carboxymethyl)[Bip]Y(Carboxymethyl)[Orn][dL][Dab][Cha]VQC[Ac3c][Aun]-OH; thioether N-14) | 9.1
